This is an account of results in patent US20080269116A1 (priority 2004, published 2008).

Where no end group is shown, it is not given here. The star is where a group is joined. Octanoyl = CCCCCCCC(=O)*

For data set [1], the system named is human T cells. Briefly: Actin polymerization in human T cells (phalloidin staining). The format is cell-based. As to conditions: ghrelin 100 ng/ml, 20 min. The source says: Actin Polymerization. […] Thereafter cells were fixed and permeabilized in 2% Paraformaldehyde plus 0.1% Triton-X 100 and stained for actin using phalloidin AF-594 and nucleus by DAPI.
Another data set deals with T cells. The experiment in a line: Cytokine mRNA expression in T cells, real time RT-PCR. The format is cell-based, human. As to conditions: normalized with GAPDH. The method, then: (§1) T cell isolation and culture. Peripheral blood mononuclear cells (PBMC) were obtained by Ficoll-Hypaque density centrifugation. T cells were purified from PBMC using human T cell enrichment columns (R&D systems) via high affinity negative selection according to manufacturer's instructions. […] T cells were stimulated with plate bound anti-human CD3 antibody (BD Pharmingen, San Diego, Calif.) (200 ng/ml) at a concentration of 3×10^6 cells/ml in AIM-V serum free media for 24 h.
(§2) Real Time RT-PCR analysis. RT-PCR was performed as described previously (Nagasawa et al. Adv. Immunol. 71: 211-228 (1999)). Total RNA (2 μg) and oligo-dT primers were used to synthesize single-stranded cDNA using the Reverse Transcription kit (Life Technologies, Gaithersburg, Md.) according to manufacturer's instructions. The PCR was set up using SYBR green Master Mix (Applied Biosystems), 1 μl cDNA and gene-specific primers at a final concentration of 0.3 μM. Thermal cycling was carried out on the Applied Biosystems GeneAmp 7700 Sequence Detector and SYBR green dye intensity was analyzed using GeneAmp 7700 SDS software. […] Mouse IL-1β, IL-6, TNF-α, GAPDH and human GHS-R1a primers were designed using ABI prism software (PE Applied Biosystems). The PCR product of the GHS-R 1a amplification was quantitated using the Agilent 2100 Bioanalyzer (Agilent Technologies, Palo Alto, Calif.). Primers are available upon request. No PCR products were generated from genomic versus cDNA template.
(Real-time PCR tracks product formation cycle by cycle.)

For data set [2], the system named is LPS-induced endotoxemia. The experiment in a line: LPS-induced endotoxemia in mice: serum cytokine levels (Bio-Plex). In kind it is in vivo, BALB/c mice. As for the experimental part: (§3) Mice. Male 20-22 g BALB/c mice (Taconic, Germantown, N.Y.), 8-10 weeks old, were used. The guidelines proposed by the committee for the Care of Laboratory Animal Resources Commission of Life Sciences-National Research Council were followed to minimize animal pain and distress. Each animal received rodent laboratory chow and ad libitum water.
(§4) LPS-induced inflammation. Endotoxin shock in mice was induced by intraperitoneal (i.p.) injection with 10 μg of LPS (E. coli serotype 055:B5, Sigma) as described previously (Bochkov et al. 2002. Nature. 419: 77-8). […] Mice were sacrificed 4 h and 24 h post-LPS challenge and visceral organs and serum were collected.
(§5) Cytokine estimation. IL-1β, IL-6 and TNF-α were estimated in T cell supernatants after 24 h using commercial ELISA kits according to manufacturer's instructions (Biosource, Camarillo, Calif.). Serum cytokines were analyzed using Bio-Plex Mouse Cytokine 18-Plex Panel according to manufacturer's instructions (Biorad, Hercules, Calif.).

Data set [3] has as its system human T cells. Briefly: T cell proliferation and IL-2 levels after anti-CD3 mAb and ghrelin. As to conditions: anti-CD3 mAb and ghrelin treatment. The format is cell-based.
In data set [4] the test system is primary human T cells. The experiment in a line: Leptin-induced cytokine protein and mRNA expression in anti-CD3-activated human T cells. To be noted: 24 h. In kind it is cell-based. The method, then: as §1, §5, §2
The test system of another data set is T cells or PBMCs. Briefly: Cytolytic effects: lactate dehydrogenase and trypan blue cell counts. The format is cell-based, human. As to conditions: control vs hormone-treated T cells or PBMCs. An excerpt:
The classical pro-inflammatory cytokines, IL-1a, IL-1β, IL-6 and TNF-α are known to play a critical role in development of anorexia-cachexia syndrome (Inui et al. 1999. Cancer Res. 59: 4493-4501). The anorexia-cachexia syndrome is a complex multifactorial metabolic condition associated with altered protein, carbohydrate and fat metabolism resulting in anorexia, negative energy balance, weight loss and muscle wasting (Kotler et al. 2000. Ann. Internal Med. 133: 622-634).

Data set [5] has as its system primary human T cells. Briefly: Cytokine production by anti-CD3-stimulated primary human T cells (ELISA). The format is cell-based. To be noted: immobilized anti-CD3 antibody, 24 h. The method, then: as §1, §5
(ELISA stands for enzyme-linked immunosorbent assay.)

The subject of the next data set is Human PBMCs. Briefly: Cytokine production by PHA-stimulated human PBMCs (ELISA). In kind it is cell-based. To be noted: 24 h.
In data set [6] the test system is LPS-induced endotoxemia. Briefly: LPS-induced endotoxemia in mice: tissue cytokine mRNA, real time PCR. In kind it is in vivo, BALB/c mice. As to conditions: for TNF-α expression: 24 h post LPS. The method, then:
as §3, §4, §2

The next data set concerns LPS-induced anorexia. Briefly: Food intake in LPS-challenged and control mice. The format is in vivo, BALB/c mice. The method, then: as §3, §4
The target in another data set is T1, GHS-R (Homo sapiens, UniProt Q92847).
T1 construct: endogenous in cells; host or cells: cultured human T cells
The experiment in a line: Intracellular calcium mobilization in cultured human T cells (Fura-2). In kind it is cell-based. As for the experimental part: Intracellular calcium mobilization. […] Cells were incubated in PBS containing 5 μM Fura-2 AM for 30 minutes at room temperature. The cells were subsequently washed and then resuspended at 1×10^6/mL in PBS. A total of 2 mL of the cell suspension was placed in a continuously stirring cuvette at room temperature in an LS50B spectrophotometer (Perkin-Elmer, Wellesley, Mass.). Fluorescence was monitored at λex1=340 nm, λex2=380 nm, and λem=510 nm. The data are presented as the relative ratio of fluorescence excited at 340 and 380 nm.
In general terms: Calcium flux is commonly read through the fluorescence of an indicator in the cells.

Data set [7] deals with human T cells. Briefly: Effect of leptin on ghrelin and GHS-R expression in human T cells. The format is cell-based. The method, then:
as §1
as §2, with “No PCR products were generated from genomic versus cDNA template.” left out

Where [8] appears, read: ghrelin alone vs sham control mice.
Setting [9] is: PHA 1 μg/ml, ghrelin 1 to 100 ng/ml.
The mark [10] stands for this setting: spleen and liver, 4 and 24 h post LPS, ghrelin 5 mg/kg i.p.
[11] abbreviates: leptin alone, primary human T cells and PBMCs.

T1 sequence (Q92847 whole entry): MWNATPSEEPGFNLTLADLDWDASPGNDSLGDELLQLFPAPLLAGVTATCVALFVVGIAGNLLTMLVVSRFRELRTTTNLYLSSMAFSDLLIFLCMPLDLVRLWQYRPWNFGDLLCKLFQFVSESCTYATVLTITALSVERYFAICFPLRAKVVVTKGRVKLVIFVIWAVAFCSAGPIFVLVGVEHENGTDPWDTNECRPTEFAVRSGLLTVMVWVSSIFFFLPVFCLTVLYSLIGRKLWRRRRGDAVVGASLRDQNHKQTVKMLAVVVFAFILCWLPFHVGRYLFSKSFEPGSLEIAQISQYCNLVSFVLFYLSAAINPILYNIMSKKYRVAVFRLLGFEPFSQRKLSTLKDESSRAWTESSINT

Turning to ghrelin, in the data set with human T cells [1], the “actin polymerization / polarization of F-actin” value was “marked increase in broad membrane structures characteristic of lamellipodia with typical polarization of F-actin”. Moreover, in the data set on T cells, the “IL-1β mRNA expression” value is “significantly inhibits”, the “IL-6 mRNA expression” value is on record as “significantly inhibits” and the “TNF-α mRNA expression” value is “significantly inhibits”. Further, in the data set with LPS-induced endotoxemia [2] (24 h after LPS challenge), the “serum IL-1β” value is “significant inhibition” and the “serum IL-6” value is recorded as “significant inhibition”. Also, the “serum ILα levels” value with LPS-induced endotoxemia [2] (24 h post LPS and ghrelin treatment) is given as “inhibited”. In the data set on LPS-induced endotoxemia [2] (setting [8]), the “Serum IL-1α level” value is given as “significantly inhibited” and the “Serum IL-1β level” value is given as “significantly inhibited”. Besides, in the data set with LPS-induced endotoxemia [2] (serum, 4 h), the “circulating IL-6 level” value is given as “but not in IL-1β (FIG. 7a) or IL-6” and the “circulating TNF-α level” value is on record as “significant change”. Moreover, in the data set on human T cells [3], the IL-2 secretion result is given as “no significant effects” and the T cell proliferation result is recorded as “no significant effects”. Also, the “leptin-induced cytokine protein and gene expression (IL-1β, IL-6, TNF-α)” value in the data set with primary human T cells [4] (ghrelin co-incubated with leptin 100 nM, T cells) was “dose-dependent inhibition”. The “cytolytic effects (LDH, cell counts by trypan blue exclusion)” value with T cells or PBMCs was “failed to demonstrate any significant difference between control and hormone-treated cells”. In the data set with primary human T cells [5], the IL-1β production result is given as “significant dose-dependent inhibition” and the IL-6 production entry is reported as “significant dose-dependent inhibition”. Further, in the data set with Human PBMCs (PHA 1 μg/ml, any concentration tested), the TGF-β production entry is reported as “failed to alter TGF-β production”. Moreover, in the data set on Human PBMCs (setting [9]), the IL-1β production entry is recorded as “significant inhibition”, the IL-6 production entry is reported as “significant inhibition” and the TNF-α production entry is “significant inhibition”. In addition, the TNF-α expression entry in the data set on LPS-induced endotoxemia [6] (liver) was “inhibited”. In the data set with LPS-induced endotoxemia [6] (setting [10]), the “IL-1β mRNA expression” value is listed as “attenuation” and the “IL-6 mRNA expression” value is recorded as “attenuation”. Besides, the “TNF-α mRNA” value with LPS-induced endotoxemia [6] (spleen and liver, 4 h post LPS) was “Attenuation”. In addition, the TNF-α expression result in the data set on LPS-induced endotoxemia [6] (spleen) is given as “remained unchanged”. The “LPS-induced anorexia (food intake)” value in the data set on LPS-induced anorexia (24 h post ghrelin and LPS, prior ghrelin treatment) is reported as “significant attenuation of this LPS-induced anorexia”. Also, the “increase in food intake compared to sham controls” value with LPS-induced anorexia (ghrelin-treated control mice in the absence of LPS challenge, 24 h) was determined as 30%.
Take [D-Lys-3]-GHRP-6 [reference compound]: in the data set with Human PBMCs (antagonist 10^−4 M added with ghrelin, PHA-stimulated PBMCs), the “effect on ghrelin-mediated inhibition of cytokine production” value is given as “attenuated this ghrelin-mediated inhibition”. Further, the “effect on ghrelin-mediated intracellular calcium release” value at GHS-R (pretreatment with antagonist 10^−4 M, then ghrelin 100 ng/ml) is “markedly attenuated”.
For “leptin: a member of gp130 family of cytokines, regarded as a pro-inflammatory inducer”, the “ghrelin protein production or gene expression” value in the data set with human T cells [7] (anti-CD3-stimulated T cells, 24 h) is reported as “failed to exert any significant effects”. In addition, the “GHS-R mRNA expression” value with human T cells [7] (human T cells, real time RT-PCR) is on record as “significant increase”. Besides, in the data set on primary human T cells [4] (setting [11]), the “IL-1β protein and mRNA expression” value was “significant dose-dependent increase”; the “IL-6 protein and mRNA expression” value is “significant dose-dependent increase”; the “TNF-α protein and mRNA expression” value is “significant dose-dependent increase”.
For “Gly-Ser-Ser(n-Octanoyl)-Phe-Leu-Ser-Pro-Glu-His-Gln-Arg-Val-Gln-Gln-Arg-Lys-Glu-Ser-NH2 (GSS(Octanoyl)FLSPEHQRVQQRKES-NH2; N-terminus assumed; SMILES CCCCCCCC(=O)OC[C@H](NC(=O)[C@H](CO)NC(=O)CN)C(=O)N[C@@H](Cc1ccccc1)C(=O)N[C@@H](CC(C)C)C(=O)N[C@@H](CO)C(=O)N1CCC[C@H]1C(=O)N[C@@H](CCC(=O)O)C(=O)N[C@@H](Cc1c[nH]cn1)C(=O)N[C@@H](CCC(N)=O)C(=O)N[C@@H](CCCNC(=N)N)C(=O)N[C@H](C(=O)N[C@@H](CCC(N)=O)C(=O)N[C@@H](CCC(N)=O)C(=O)N[C@@H](CCCNC(=N)N)C(=O)N[C@@H](CCCCN)C(=O)N[C@@H](CCC(=O)O)C(=O)N[C@@H](CO)C(N)=O)C(C)C) [ghrelin 1-18 fragment]”, the “rise in intracellular [Ca^2+]” value with GHS-R (cultured human T cells, ghrelin 100 ng/ml) was “significant and specific rise in intracellular [Ca^2+]”.
